Each structure is given as a SMILES string. Some results are limits rather than exact numbers.

The test system of one assay is MCF7. The assay can be described thus: cells. As to conditions: Homo sapiens, MCF7, 72 h.
In the next assay the test system is A549. Put plainly: Cytotoxicity against human A549 cells after 72 hrs by MTT assay. The following applies: A549, 72 h.
The nature of a further assay: cells. As to conditions: Homo sapiens, PC-3, 72 h.
Assay [1] concerns the target Hepatocyte growth factor receptor (Homo sapiens, UniProt P08581). The assay can be described thus: Inhibition of c-Met (unknown origin) by mobility shift assay.
A further assay has as its system HepG2. Put plainly: Cytotoxicity against human HepG2 cells after 72 hrs by MTT assay. The following applies: HepG2, 72 h.
The test system of another assay is HeLa. The assay can be described thus: Cytotoxicity against human HeLa cells after 72 hrs by MTT assay. (Tetrazolium dyes change colour on reduction, which living cells bring about.)

Hepatocyte growth factor receptor, sequence (P08581 whole entry): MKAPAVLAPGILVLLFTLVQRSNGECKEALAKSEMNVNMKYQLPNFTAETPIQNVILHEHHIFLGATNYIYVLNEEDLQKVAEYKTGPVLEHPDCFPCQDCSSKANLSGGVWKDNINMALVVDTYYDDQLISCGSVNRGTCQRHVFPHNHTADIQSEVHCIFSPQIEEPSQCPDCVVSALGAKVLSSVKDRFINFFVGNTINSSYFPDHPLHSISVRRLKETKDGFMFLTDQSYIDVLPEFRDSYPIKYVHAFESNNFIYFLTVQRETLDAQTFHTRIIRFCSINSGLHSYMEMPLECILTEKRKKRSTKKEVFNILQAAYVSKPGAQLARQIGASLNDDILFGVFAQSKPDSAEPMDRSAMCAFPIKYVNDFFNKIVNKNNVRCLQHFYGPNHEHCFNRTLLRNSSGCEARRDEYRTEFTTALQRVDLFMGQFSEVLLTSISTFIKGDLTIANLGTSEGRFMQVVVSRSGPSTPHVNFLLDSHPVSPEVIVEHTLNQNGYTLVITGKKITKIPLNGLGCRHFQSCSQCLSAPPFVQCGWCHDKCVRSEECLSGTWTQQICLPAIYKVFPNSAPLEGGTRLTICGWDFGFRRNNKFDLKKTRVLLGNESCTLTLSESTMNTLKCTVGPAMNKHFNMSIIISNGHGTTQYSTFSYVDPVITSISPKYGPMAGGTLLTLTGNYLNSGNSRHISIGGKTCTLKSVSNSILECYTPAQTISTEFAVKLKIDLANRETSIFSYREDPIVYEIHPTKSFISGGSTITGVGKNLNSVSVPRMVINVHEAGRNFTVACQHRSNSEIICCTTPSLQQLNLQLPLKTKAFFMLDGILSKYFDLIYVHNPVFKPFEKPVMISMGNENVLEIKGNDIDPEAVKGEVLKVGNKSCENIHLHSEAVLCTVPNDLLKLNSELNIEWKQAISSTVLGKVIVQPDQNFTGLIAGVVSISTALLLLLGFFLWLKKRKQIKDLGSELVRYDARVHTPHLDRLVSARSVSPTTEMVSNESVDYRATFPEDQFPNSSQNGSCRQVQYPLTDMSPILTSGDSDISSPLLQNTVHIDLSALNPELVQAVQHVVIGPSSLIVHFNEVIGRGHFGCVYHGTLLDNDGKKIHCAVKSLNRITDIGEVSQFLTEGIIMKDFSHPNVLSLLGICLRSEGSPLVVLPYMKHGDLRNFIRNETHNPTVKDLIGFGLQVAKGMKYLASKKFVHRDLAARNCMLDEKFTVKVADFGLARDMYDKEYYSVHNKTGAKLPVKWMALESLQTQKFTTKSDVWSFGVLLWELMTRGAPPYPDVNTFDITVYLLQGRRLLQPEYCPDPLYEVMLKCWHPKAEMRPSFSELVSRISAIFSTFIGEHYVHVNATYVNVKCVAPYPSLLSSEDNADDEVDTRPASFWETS
Description for MCF7: Cytotoxicity against human MCF7 cells after 72 hrs by MTT assay

In general, IC50 refers to the concentration that inhibits the measured activity by half. As for `Cc1ccc(-c2ccc(C(=O)Nc3ccc(Oc4ccnc5[nH]ccc45)c(F)c3)nc2)cc1`, the IC50 was found to be 8.02 µM in the assay with MCF7, 2.3 µM with A549 and 2.64 µM in “cells”.
`O=C(Nc1ccc(Oc2ccnc3[nH]ccc23)cc1)c1cc(-c2ccc(C(F)(F)F)cc2)ccn1`: the IC50 in assay [1] is greater than 10 µM; with MCF7 it was greater than 10 µM; with A549 it was 3.95 µM; in the assay “cells”, 14.2 µM.
For `Cc1ccc(-c2ccnc(C(=O)Nc3ccc(Oc4ccnc5[nH]ccc45)cc3)c2)cc1`, the IC50 in the assay on MCF7, with A549 and in the assay “cells” was greater than 10 µM throughout.
As for `O=C(Nc1ccc(Oc2ccnc3[nH]ccc23)c(F)c1)c1cc(-c2ccc(F)cc2F)ccn1`, the IC50 (in assay [1]; in the assay with MCF7; with A549; in the assay “cells”) was greater than 10 µM in each case.
Take `Cc1ccc(-c2ccnc(C(=O)Nc3ccc(Oc4ccnc5[nH]ccc45)c(F)c3)c2)cc1`: the figures for the IC50 with MCF7, with A549 and in “cells” were 8.43 µM, 3.12 µM and 3.97 µM, respectively.
In the case of `O=C(Nc1ccc(Oc2ccnc3[nH]ccc23)cc1)c1ccc(-c2ccc(Cl)cc2)cn1`, the IC50 (in assay [1]; in the assay with MCF7; in the assay on A549; in “cells”) was greater than 10 µM in each case.
Take `O=C(Nc1ccc(Oc2ccnc3[nH]ccc23)c(F)c1)c1ccc(-c2ccc(Cl)cc2)cn1`: the IC50 was greater than 10 µM with MCF7, 10 µM in the assay with A549 and 3.03 µM in the assay “cells”.
On to `Cc1ccc(-c2ccnc(C(=O)Nc3ccc(Oc4ccnc5[nH]ccc45)c(F)c3)c2)c(C)c1`, for which the IC50 with HepG2 is 13.3 µM; with HeLa, 11.9 µM; in the assay on MCF7, 6.22 µM; with A549 it was 4.35 µM; in the assay “cells” it was 4.01 µM.
Take `O=C(Nc1ccc(Oc2ccnc3[nH]ccc23)cc1)c1cc(-c2ccccc2)ccn1`: the figures for the IC50 with MCF7, with A549 and in the assay “cells” were 3.75 µM, 2.92 µM and 3.27 µM, respectively.
As to `COc1ccc(-c2ccc(C(=O)Nc3ccc(Oc4ccnc5[nH]ccc45)cc3)nc2)cc1`, the IC50 in the assay with MCF7, with A549 and in the assay “cells” was greater than 10 µM each time.
Regarding `O=C(Nc1ccc(Oc2ccnc3[nH]ccc23)c(F)c1)c1cc(-c2ccc(F)cc2)ccn1`, the IC50 in the assay with MCF7 stood at 9.52 µM; with A549 it was 1.09 µM; in the assay “cells”, 0.71 µM.
Consider `O=C(Nc1ccc(Oc2ccnc3[nH]ccc23)c(F)c1)c1cc(-c2ccc(C(F)(F)F)cc2)ccn1`, for which the IC50 was greater than 10 µM in assay [1], 8.55 µM in the assay on MCF7, 4.92 µM in the assay with A549 and 4.35 µM in “cells”.
For the molecule `O=C(Nc1ccc(Oc2ccnc3[nH]ccc23)c(F)c1)c1ccc(-c2ccc(F)cc2F)cn1`, the IC50 in the assay on MCF7 was greater than 10 µM; in the assay on A549, 3.1 µM; in “cells” it was 4.72 µM.
`O=C(Nc1ccc(Oc2ccnc3[nH]ccc23)c(F)c1)c1ccc(-c2ccccc2)cn1`: the IC50 in assay [1] was greater than 10 µM; in the assay with MCF7, 4.39 µM; with A549, 1.25 µM; in “cells”, 0.76 µM.
As to `O=C(Nc1ccc(Oc2ccnc3[nH]ccc23)cc1)c1ccc(-c2ccc(F)cc2F)cn1`, the IC50 (in assay [1]; in the assay with MCF7; with A549; in the assay “cells”) was greater than 10 µM in each case.
In the case of `CCc1ccc(-c2ccc(C(=O)Nc3ccc(Oc4ccnc5[nH]ccc45)cc3)nc2)cc1`, the IC50 (in assay [1]; in the assay on MCF7; in the assay on A549; in “cells”) was greater than 10 µM each time.
In the case of `COc1ccc(-c2ccnc(C(=O)Nc3ccc(Oc4ccnc5[nH]ccc45)cc3)c2)cc1`, the IC50 with HepG2 came to 11.7 µM; with HeLa, 7.53 µM; with MCF7, 8.21 µM; in the assay with A549 it was 6.97 µM; in the assay “cells” it was 9.62 µM.
Regarding `O=C(Nc1ccc(Oc2ccnc3[nH]ccc23)cc1)c1cc(-c2ccc(Cl)cc2)ccn1`, the IC50 in the assay with MCF7 was greater than 10 µM; in the assay with A549 it was 4.31 µM; in the assay “cells”, 25.1 µM.
For the molecule `Cc1cccc(-c2ccnc(C(=O)Nc3ccc(Oc4ccnc5[nH]ccc45)cc3)c2)c1`, the figures for the IC50 in the assay with MCF7, in the assay on A549 and in “cells” were 7.47 µM, 7.01 µM and 5.47 µM, respectively.
For `Cc1ccc(-c2ccc(C(=O)Nc3ccc(Oc4ccnc5[nH]ccc45)cc3)nc2)cc1`, the IC50 with MCF7, in the assay on A549 and in “cells” was greater than 10 µM each time.
For `COc1ccc(-c2ccc(C(=O)Nc3ccc(Oc4ccnc5[nH]ccc45)c(F)c3)nc2)cc1`, the IC50 in assay [1] is greater than 10 µM; with MCF7 it was 10.1 µM; in the assay on A549, 2.24 µM; in the assay “cells” it was 0.65 µM.
As to `Cc1cccc(-c2ccnc(C(=O)Nc3ccc(Oc4ccnc5[nH]ccc45)c(F)c3)c2)c1`, the IC50 in the assay on HepG2 is 11.2 µM; in the assay on HeLa, 10.3 µM; in the assay on MCF7, 9.12 µM; with A549, 1.75 µM; in the assay “cells”, 0.86 µM.
The like results for `CCc1ccc(-c2ccnc(C(=O)Nc3ccc(Oc4ccnc5[nH]ccc45)c(F)c3)c2)cc1` were, in that order, 10.4 µM, 8.63 µM, 7.47 µM, 3.37 µM and 2.96 µM.
For the molecule `O=C(Nc1ccc(Oc2ccnc3[nH]ccc23)c(F)c1)c1cc(-c2ccccc2)ccn1`, the IC50 in assay [1] is greater than 10 µM; in the assay with MCF7, greater than 10 µM; in the assay on A549, 4.95 µM; in the assay “cells”, greater than 10 µM.
Regarding `COc1ccc(-c2ccnc(C(=O)Nc3ccc(Oc4ccnc5[nH]ccc45)c(F)c3)c2)cc1`, the IC50 worked out at 13.3 µM in the assay on HepG2; 5.89 µM in the assay with HeLa; 9.11 µM with MCF7; 1.04 µM in the assay with A549; 0.02 µM in “cells”.
As to `O=C(Nc1ccc(Oc2ccnc3[nH]ccc23)c(F)c1)c1ccc(-c2ccc(F)cc2)cn1`, the IC50 in assay [1] was greater than 10 µM; with MCF7, greater than 10 µM; in the assay on A549, 6.01 µM; in the assay “cells” it was 13.4 µM.

Source of the values: ChEMBL document CHEMBL3751824, “Design, synthesis, and docking studies of phenylpicolinamide derivatives bearing 1H-pyrrolo[2,3-b]pyridine moiety as c-Met inhibitors” (Bioorg Med Chem, 2016).
